Assay results taken from the NIST ThermoML archive (doi:10.1016/j.fluid.2007.07.016).

Legend:
[1] = Liquid; for viscosity: Capillary tube (Ostwald / Ubbelohde) method; for speed of sound: Linear variable-path acoustic interferometer
[2] = xn = mol fraction of the nth substance listed; settings: 101 kPa, Liquid; for viscosity: Capillary tube (Ostwald / Ubbelohde) method; for speed of sound: Linear variable-path acoustic interferometer

Cc1cccc(C)c1 [1,3-dimethylbenzene]
[1]
Settings | speed of sound, 288.15 K [m/s] | speed of sound, 298.15 K [m/s] | speed of sound, 308.15 K [m/s] | speed of sound, 318.15 K [m/s] | viscosity, 288.15 K [mPa·s] | viscosity, 298.15 K [mPa·s] | viscosity, 308.15 K [mPa·s] | viscosity, 318.15 K [mPa·s]
101 kPa | 1373.2 | – | – | – | 0.6696 | – | – | –
101.33 kPa | – | 1326.6 | 1281 | 1243 | – | 0.588 | 0.5229 | 0.4684

C1CCOC1 [tetrahydrofuran]
[1]
Settings | speed of sound, 288.15 K [m/s] | speed of sound, 298.15 K [m/s] | speed of sound, 308.15 K [m/s] | speed of sound, 318.15 K [m/s] | viscosity, 288.15 K [mPa·s] | viscosity, 298.15 K [mPa·s] | viscosity, 308.15 K [mPa·s] | viscosity, 318.15 K [mPa·s]
101 kPa | 1323.1 | 1277.6 | 1231.5 | 1187.2 | 0.5129 | – | – | –
101.33 kPa | – | 1276.6 | 1231.7 | 1186.4 | – | 0.458 | 0.4125 | 0.3762

Cc1ccc(C)cc1 [1,4-dimethylbenzene]
[1]
Settings | speed of sound, 288.15 K [m/s] | speed of sound, 298.15 K [m/s] | speed of sound, 308.15 K [m/s] | speed of sound, 318.15 K [m/s] | viscosity, 288.15 K [mPa·s] | viscosity, 298.15 K [mPa·s] | viscosity, 308.15 K [mPa·s] | viscosity, 318.15 K [mPa·s]
101 kPa | 1357.5 | – | – | – | 0.7084 | – | – | –
101.33 kPa | – | 1316.4 | 1268 | 1230.3 | – | 0.611 | 0.5501 | 0.4912

Cc1cc(C)cc(C)c1 [1,3,5-trimethylbenzene]
[1]
Settings | speed of sound, 288.15 K [m/s] | speed of sound, 298.15 K [m/s] | speed of sound, 308.15 K [m/s] | speed of sound, 318.15 K [m/s] | viscosity, 288.15 K [mPa·s] | viscosity, 298.15 K [mPa·s] | viscosity, 308.15 K [mPa·s] | viscosity, 318.15 K [mPa·s]
101 kPa | 1412.3 | – | – | – | 0.7592 | – | – | –
101.33 kPa | – | 1369.8 | 1325.2 | 1279 | – | 0.6572 | 0.5792 | 0.5066

C1CCOC1 [tetrahydrofuran] + Cc1ccccc1C
[2], x1 = 1
Settings | speed of sound [m/s] | viscosity [mPa·s]
288.15 K | 1323.1 | 0.5129
298.15 K | 1277.6 | 0.458
308.15 K | 1231.5 | 0.4125
318.15 K | 1187.2 | 0.3762

C1CCOC1 [tetrahydrofuran] + Cc1ccc(C)cc1
[2], x1 = 1
Settings | speed of sound [m/s] | viscosity [mPa·s]
288.15 K | 1323.1 | 0.5129
298.15 K | 1277.6 | 0.458
308.15 K | 1231.5 | 0.4125
318.15 K | 1187.2 | 0.3762

c1ccccc1 [benzene] + C1CCOC1
[2], x2 = 0
Settings | speed of sound [m/s] | viscosity [mPa·s]
288.15 K | 1352.4 | 0.693
298.15 K | 1303.5 | 0.6025
308.15 K | 1257.4 | 0.5395
318.15 K | 1207.2 | 0.467

c1ccccc1 [benzene]
[1]
Settings | speed of sound, 288.15 K [m/s] | speed of sound, 298.15 K [m/s] | speed of sound, 308.15 K [m/s] | speed of sound, 318.15 K [m/s] | viscosity, 288.15 K [mPa·s] | viscosity, 298.15 K [mPa·s] | viscosity, 308.15 K [mPa·s] | viscosity, 318.15 K [mPa·s]
101 kPa | 1352.4 | – | – | – | 0.693 | – | – | –
101.33 kPa | – | 1303.5 | 1257.4 | 1207.2 | – | 0.6025 | 0.5395 | 0.467

C1CCOC1 [tetrahydrofuran] + Cc1cccc(C)c1
[2], x1 = 1
Settings | speed of sound [m/s] | viscosity [mPa·s]
288.15 K | 1323.1 | 0.5129
298.15 K | 1277.6 | 0.458
308.15 K | 1231.5 | 0.4125
318.15 K | 1187.2 | 0.3762

Cc1ccccc1 [toluene] + C1CCOC1
[2], x2 = 0
Settings | speed of sound [m/s] | viscosity [mPa·s]
288.15 K | 1358.5 | 0.6456
298.15 K | 1310.5 | 0.5531
308.15 K | 1266.2 | 0.502
318.15 K | 1221 | 0.4379

C1CCOC1 [tetrahydrofuran] + Cc1cc(C)cc(C)c1
[2], x1 = 1
Settings | speed of sound [m/s] | viscosity [mPa·s]
288.15 K | 1323.1 | 0.5129
298.15 K | 1277.6 | 0.458
308.15 K | 1231.5 | 0.4125
318.15 K | 1187.2 | 0.3762

Cc1ccccc1C [1,2-dimethylbenzene]
[1]
Settings | speed of sound, 288.15 K [m/s] | speed of sound, 298.15 K [m/s] | speed of sound, 308.15 K [m/s] | speed of sound, 318.15 K [m/s] | viscosity, 288.15 K [mPa·s] | viscosity, 298.15 K [mPa·s] | viscosity, 308.15 K [mPa·s] | viscosity, 318.15 K [mPa·s]
101 kPa | 1388.5 | – | – | – | 0.8623 | – | – | –
101.33 kPa | – | 1350.3 | 1321.4 | 1285.8 | – | 0.7576 | 0.669 | 0.5972

Cc1ccccc1 [toluene]
[1]
Settings | speed of sound, 288.15 K [m/s] | speed of sound, 298.15 K [m/s] | speed of sound, 308.15 K [m/s] | speed of sound, 318.15 K [m/s] | viscosity, 288.15 K [mPa·s] | viscosity, 298.15 K [mPa·s] | viscosity, 308.15 K [mPa·s] | viscosity, 318.15 K [mPa·s]
101 kPa | 1358.5 | – | – | – | 0.6456 | – | – | –
101.33 kPa | – | 1310.5 | 1266.2 | 1221 | – | 0.5531 | 0.502 | 0.4379
